Test [1] has as its target T1, Polyunsaturated fatty acid lipoxygenase ALOX12 (Homo sapiens, UniProt P18054).
T1 sequence (P18054 whole entry): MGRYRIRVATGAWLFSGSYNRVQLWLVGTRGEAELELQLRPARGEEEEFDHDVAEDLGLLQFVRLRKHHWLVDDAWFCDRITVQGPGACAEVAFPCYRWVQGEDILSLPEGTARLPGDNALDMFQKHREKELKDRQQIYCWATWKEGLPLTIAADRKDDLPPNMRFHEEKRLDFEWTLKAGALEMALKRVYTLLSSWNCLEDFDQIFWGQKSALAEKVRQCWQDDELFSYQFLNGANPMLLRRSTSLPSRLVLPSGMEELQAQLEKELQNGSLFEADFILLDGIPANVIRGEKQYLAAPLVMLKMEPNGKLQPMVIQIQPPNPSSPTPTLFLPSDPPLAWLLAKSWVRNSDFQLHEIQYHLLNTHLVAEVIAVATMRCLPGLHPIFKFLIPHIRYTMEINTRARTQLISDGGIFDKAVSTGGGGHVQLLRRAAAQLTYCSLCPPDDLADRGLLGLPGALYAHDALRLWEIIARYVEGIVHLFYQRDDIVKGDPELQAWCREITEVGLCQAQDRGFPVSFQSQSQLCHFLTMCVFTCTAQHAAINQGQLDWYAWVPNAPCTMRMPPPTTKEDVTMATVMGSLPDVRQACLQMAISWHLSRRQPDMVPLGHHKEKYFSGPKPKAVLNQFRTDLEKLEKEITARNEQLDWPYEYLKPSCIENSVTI
Put plainly: Inhibition of human platelet-type N-terminally His6-tagged 12-lipoxygenase assessed as conjugated diene product formation using arachidonic acid by UV-vis spectrophotometer analysis.

Test [2] addresses T2, Polyunsaturated fatty acid lipoxygenase ALOX15 (Homo sapiens, UniProt P16050).
T2 sequence (P16050 whole entry): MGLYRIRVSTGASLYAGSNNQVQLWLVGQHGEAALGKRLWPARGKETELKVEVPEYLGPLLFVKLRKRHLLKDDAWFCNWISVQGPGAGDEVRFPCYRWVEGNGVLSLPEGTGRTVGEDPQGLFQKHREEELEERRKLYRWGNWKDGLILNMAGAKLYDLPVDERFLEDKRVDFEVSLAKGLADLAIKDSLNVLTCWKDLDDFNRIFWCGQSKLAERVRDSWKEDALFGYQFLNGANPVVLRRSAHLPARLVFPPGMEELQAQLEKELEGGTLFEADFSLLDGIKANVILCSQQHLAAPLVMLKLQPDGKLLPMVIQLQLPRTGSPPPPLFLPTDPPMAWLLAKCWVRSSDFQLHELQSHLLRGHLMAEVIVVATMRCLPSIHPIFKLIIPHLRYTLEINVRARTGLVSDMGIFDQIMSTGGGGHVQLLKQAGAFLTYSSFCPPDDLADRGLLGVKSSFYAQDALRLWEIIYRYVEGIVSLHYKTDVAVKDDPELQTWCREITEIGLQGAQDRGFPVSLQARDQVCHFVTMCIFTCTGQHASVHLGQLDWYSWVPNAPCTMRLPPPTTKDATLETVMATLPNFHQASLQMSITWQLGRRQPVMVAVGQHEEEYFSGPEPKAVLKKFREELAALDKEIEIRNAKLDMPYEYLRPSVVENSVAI

Test [3] addresses T1, Polyunsaturated fatty acid lipoxygenase ALOX12. Nature of the test: Inhibition of human platelet-type 12-lipoxygenase.
Test [4] has as its target T3, Polyunsaturated fatty acid lipoxygenase ALOX15B (Homo sapiens, UniProt O15296).
T3 sequence (O15296 whole entry): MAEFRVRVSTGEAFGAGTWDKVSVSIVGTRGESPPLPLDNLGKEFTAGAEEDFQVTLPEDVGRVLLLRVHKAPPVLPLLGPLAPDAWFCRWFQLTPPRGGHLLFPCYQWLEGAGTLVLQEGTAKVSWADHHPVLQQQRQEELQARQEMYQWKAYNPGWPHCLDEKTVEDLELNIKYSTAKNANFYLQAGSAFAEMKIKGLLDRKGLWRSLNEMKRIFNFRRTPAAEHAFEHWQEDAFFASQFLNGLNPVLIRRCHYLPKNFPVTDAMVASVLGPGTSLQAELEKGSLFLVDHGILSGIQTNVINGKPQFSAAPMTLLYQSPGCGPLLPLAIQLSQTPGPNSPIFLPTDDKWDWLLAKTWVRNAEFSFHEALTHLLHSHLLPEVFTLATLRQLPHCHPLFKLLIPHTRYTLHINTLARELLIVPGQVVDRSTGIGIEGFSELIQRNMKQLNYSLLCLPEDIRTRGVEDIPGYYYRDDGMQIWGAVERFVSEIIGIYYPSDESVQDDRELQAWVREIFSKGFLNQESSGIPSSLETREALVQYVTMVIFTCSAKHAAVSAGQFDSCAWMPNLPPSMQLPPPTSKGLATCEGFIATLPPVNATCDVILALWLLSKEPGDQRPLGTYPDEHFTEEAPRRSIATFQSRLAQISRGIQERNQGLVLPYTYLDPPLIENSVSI
Nature of the test: Inhibition of human reticulocyte N-terminally His6-tagged 15-lipoxygenase-2 assessed as conjugated diene product formation using arachidonic acid by UV-vis spectrophotometer analysis.

The species named for test [5] is Homo sapiens. Nature of the test: Selectivity ratio of IC50 for human reticulocyte N-terminally His6-tagged 15-lipoxygenase-1 to IC50 for human platelet-type N-terminally His6-tagged 12-lipoxygenase.
The target in test [6] is T2, Polyunsaturated fatty acid lipoxygenase ALOX15. Put plainly: Inhibition of human reticulocyte N-terminally His6-tagged 15-lipoxygenase-1 assessed as conjugated diene product formation using arachidonic acid by UV-vis spectrophotometer analysis.
In test [7] the target is T4, Polyunsaturated fatty acid 5-lipoxygenase (Homo sapiens, UniProt P09917).
T4 sequence (P09917 whole entry): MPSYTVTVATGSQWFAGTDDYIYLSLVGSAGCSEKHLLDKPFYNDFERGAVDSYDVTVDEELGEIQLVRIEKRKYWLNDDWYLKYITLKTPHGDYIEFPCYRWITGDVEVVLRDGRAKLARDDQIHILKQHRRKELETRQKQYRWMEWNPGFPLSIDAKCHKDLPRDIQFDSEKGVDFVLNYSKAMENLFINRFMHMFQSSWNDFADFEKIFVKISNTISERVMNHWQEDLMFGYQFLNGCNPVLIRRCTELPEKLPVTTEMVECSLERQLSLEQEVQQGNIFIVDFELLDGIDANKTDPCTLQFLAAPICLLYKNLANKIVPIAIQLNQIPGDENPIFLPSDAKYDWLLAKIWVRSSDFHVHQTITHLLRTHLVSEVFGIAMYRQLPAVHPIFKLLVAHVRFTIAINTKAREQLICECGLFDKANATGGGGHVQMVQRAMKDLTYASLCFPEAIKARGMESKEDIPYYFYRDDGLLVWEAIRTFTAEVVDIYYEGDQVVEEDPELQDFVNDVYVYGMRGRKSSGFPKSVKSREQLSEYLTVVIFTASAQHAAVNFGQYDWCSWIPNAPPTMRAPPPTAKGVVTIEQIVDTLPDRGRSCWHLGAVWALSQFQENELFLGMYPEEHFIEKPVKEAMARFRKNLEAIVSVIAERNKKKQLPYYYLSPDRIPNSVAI
Nature of the test: Inhibition of human 5-lipoxygenase assessed as conjugated diene product formation using arachidonic acid by UV-vis spectrophotometer analysis.

Test [8] is filed under the species Homo sapiens. Nature of the test: Selectivity ratio of IC50 for human reticulocyte N-terminally His6-tagged 15-lipoxygenase-2 to IC50 for human platelet-type N-terminally His6-tagged 12-lipoxygenase.
The species named for test [9] is Homo sapiens. Nature of the test: Selectivity ratio of IC50 for human 5-lipoxygenase to IC50 for human platelet-type N-terminally His6-tagged 12-lipoxygenase.
Test [10] has as its target T1, Polyunsaturated fatty acid lipoxygenase ALOX12. Put plainly: cell-based.
Test [11] concerns the target T5, Polyunsaturated fatty acid lipoxygenase ALOX12 (Homo sapiens) (UniProt P18054).
T5 sequence (whole entry): T1 sequence (P18054 whole entry)
The conditions noted are these: 10 uM.

The subject of test [12] is Radical scavenging activity. Put plainly: Antioxidant activity assessed as DPPH radical scavenging activity at 5 uM. The class given is functional. A general note: Loss of DPPH colour is used to gauge radical scavenging.
Test [13] concerns the target T5, Polyunsaturated fatty acid lipoxygenase ALOX12 (Homo sapiens). The conditions noted are these: 10 uM. This is another data set of the same source.
The target is the same in test [14]. The conditions noted are these: 100 uM.
For test [15] the target is unchanged. Nature of the test: Competitive inhibition of human platelet-type N-terminally His6-tagged 12-lipoxygenase assessed as 12-HPETE formation using arachidonic acid by Michaelis-Menten equation analysis.
Test [16] shares this target. Put plainly: Uncompetitive inhibition of human platelet-type N-terminally His6-tagged 12-lipoxygenase assessed as 12-HPETE formation using arachidonic acid by Michaelis-Menten equation analysis.

Calls of active or inactive are those of the source. The calls are words filed in the database; no cut-off is given here.

Broadly, the IC50 is the midpoint of a concentration-inhibition curve. Turning to `CC(=O)NC(c1ccco1)c1cc(Cl)c2ccc(Cl)nc2c1O` (configuration not stated), the half-inhibitory concentration (IC50) in test [1] was over 75 µM.
For the molecule `CCC(=O)NC(c1ccco1)c1cc(Cl)c2cccnc2c1OC` (configuration not stated), the IC50 in test [1] was over 75 µM.
On to `CCC(=O)NC(C)c1cc(Cl)c2cccnc2c1O` (configuration not stated), for which, in test [1], the IC50 is over 50 µM.
For `O=C(NC(c1ccco1)c1cc(Cl)c2cccnc2c1O)c1ccccc1` (configuration not stated), the IC50 in test [1] was over 25 µM.
Turning to `CCC(=O)NC(c1ccco1)c1cc(Cl)c2c(c1O)NCCC2` (configuration not stated), in test [1], the 50% inhibitory concentration (IC50) came out at 3 µM.
As for `CC(=O)NC(c1ccco1)c1cc(Cl)c2ccccc2c1O` (configuration not stated), the concentration for half-maximal inhibition (IC50) in test [1] is over 75 µM.
As to `CC(=O)NC(C)c1cc(F)c2cccnc2c1O` (configuration not stated), in [1], the IC50 is over 75 µM.
Regarding `CCC(=O)NC(c1ccc(Br)o1)c1cc(Cl)c2cccnc2c1O` (configuration not stated), the IC50 in [1] was over 75 µM.
Consider `CC(C)(c1ccc(O)c(Br)c1)c1cc(Br)c(O)c(Br)c1`, for which the IC50 in test [2] amounted to 7 µM; in [3], 5 µM.
As to `CCC(=O)NC(c1ccco1)c1cc(Cl)c2cccnc2c1O` (configuration not stated), the IC50 in test [4] is over 100 µM; in [6] it was over 50 µM; in [7], over 100 µM. In addition, the Ratio IC50 in the test filed under Homo sapiens [5] is over 50; in the test listed under Homo sapiens [8], over 100; in the test listed under Homo sapiens [9] it was over 100.
On to `CC(=O)NC(c1ccco1)c1cc(Cl)c2ccc(N(C)C)nc2c1O` (configuration not stated), for which the IC50 in test [1] was over 75 µM.
As a reminder, the inhibition is the percentage by which the read-out fell short of the control. As to `CCC(=O)NC(c1cccs1)c1cc([N+](=O)[O-])c2cccnc2c1O` (configuration not stated), the concentration for half-maximal inhibition (IC50) was 15 µM in test [10] and over 25 µM in test [6]. Further, the inhibition in test [11] was determined as 70%; in [13], 68.9%. In test [12], the outcome was inactive. Also, the inhibition result in test [14] is “Active”.
With `Oc1c(Br)c(Br)c(Br)c(Br)c1Oc1ccc(Br)cc1Br`, the IC50 in [2] stood at 0.7 µM; in test [3] it was 1.8 µM.
`Oc1c(Cl)cc(Cl)c2cccnc12` [CHLOROXINE]: the 50% inhibitory concentration (IC50) in test [4] was determined as 28 µM; in test [1], 1.9 µM; in [6], 2.4 µM; in [7], 3.6 µM.
Take `CC(=O)NC(c1ccco1)c1cc(Cl)c2ccc(N3CCCCC3)nc2c1O` (configuration not stated): in [1], the concentration for half-maximal inhibition (IC50) was over 75 µM.
`CC(=O)NC(c1cccs1)c1cc(Cl)c2cccnc2c1O` (configuration not stated): the Ratio IC50 in the test filed under Homo sapiens [5] is 25; in the test listed under Homo sapiens [9], over 100. Besides, the results for the IC50 in [6] and in test [7] were over 25 µM and over 100 µM, respectively. Besides, the Kic in [15] stood at 0.7 µM. In test [16], the Kiuc came to 0.8 µM.
Regarding `CC(=O)NC(C)c1cc(Cl)c2cccnc2c1O` (configuration not stated), the IC50 in [1] is over 150 µM.
`Cc1ccc(C(=O)NC(c2ccco2)c2cc(Cl)c3cccnc3c2O)cc1` (configuration not stated): the 50% inhibitory concentration (IC50) in [1] was over 25 µM.
As for `CCC(=O)NC(c1ccc(F)cc1)c1cc(Cl)c2cccnc2c1O` (configuration not stated), the IC50 in test [1] is over 50 µM.
The same measure, in the same setting: the value for `CC(=O)NCc1cc(Cl)c2cccnc2c1O` was over 150 µM.
As to `CCC(=O)NC(c1cccs1)c1ccc2cccnc2c1O` (configuration not stated), the concentration for half-maximal inhibition (IC50) in test [4] was over 100 µM; in test [6], over 50 µM; in [7], over 100 µM. Also, the Ratio IC50 in the test filed under Homo sapiens [5] is over 15; in the test filed under Homo sapiens [8] it was over 29; in the test listed under Homo sapiens [9], over 29.
Take `CC(Cc1ccc(O)c(O)c1)C(C)Cc1ccc(O)c(O)c1` (configuration not stated): in [12], the result was Active.

These data come from ChEMBL document CHEMBL1811753, “Discovery of potent and selective inhibitors of human platelet-type 12- lipoxygenase” (J Med Chem, 2011).
